In EPA's ToxValDB 9.5 (doi:10.2903/j.efsa.2009.332r):

Key:
[1] = chronic/long-term
[2] = tested on: Oncorhynchus mykiss; details: chronic/long-term; growth
[3] = tested on: Mus musculus; details: acute; oral; mortality
[4] = tested on: Daphnia magna; details: chronic/long-term; duration: 21 days; mortality
[5] = tested on: Anas platyrhynchos; details: acute; oral; unspecified; mortality
[6] = tested on: Canidae; details: chronic; duration: 1 years; oral; Dog Other; hematological
[7] = tested on: Colinus virginianus; details: for LD50: acute, oral, mortality
[8] = tested on: Apis mellifera; details: acute; dermal; mortality
[9] = tested on: Tagia sp.; details: acute; duration: 14 days; mortality
[10] = tested on: Rattus norvegicus; details: oral

O=C(NC(=O)c1c(F)cccc1F)Nc1ccc(Cl)cc1 [Diflubenzuron]
NOEL [1]: 3680 mg/kg-day
NOEC [2]: 0.2 mg/L
LD50 [3]: > 4640 mg/kg
NOEC [4]: 4e-05 mg/L
LD50 [5]: > 5000 mg/kg
NOAEL [6]: 10 mg/kg-day
LD50 ([7]; diet): > 1210 mg/kg-day
LD50 [7]: > 5000 mg/kg
NOEC ([7]; reproduction developmental): 42.7 mg/kg-day
LD50 [8]: 0.05 µg/piece
LC50 [9]: > 1000 mg/kg
LD50 ([10]; acute, mortality): 4640 mg/kg
NOAEL ([10]; subchronic, duration: 13 weeks, hematological): 11 mg/kg-day
